Measurements published in US7538131B2, “2-{-3-′2-(phenyl)-oxazol-4-ylmethoxymethyl-cyclohexylmethoxy}-propionic acid derivatives useful as peroxisome proliferator-activated receptor (PPAR) ligands for the treatment of hyperlipidemia and diabetes” (Sanofi-Aventis Deutschland GmbH, priority 2004, dated 2009).

Assays:
human PPARgamma = target: T1, human PPARgamma (Homo sapiens, UniProt P37231); experiment: Cellular PPARgamma assay (transiently transfected HEK cells, luciferase reporter); format: cell-based; details: GAL4-humanPPARgammaLBD, firefly/Renilla luciferase ratio, 48 h
T1 construct: human PPARgamma receptor (amino acids 1152-Y475); expressed in transfected cells; host or cells: HEK cells (transiently transfected, pcDNA3-GAL4-humanPPARgammaLBD)
T1 sequence (P37231 182-477 isoform P37231-2 limits assumed): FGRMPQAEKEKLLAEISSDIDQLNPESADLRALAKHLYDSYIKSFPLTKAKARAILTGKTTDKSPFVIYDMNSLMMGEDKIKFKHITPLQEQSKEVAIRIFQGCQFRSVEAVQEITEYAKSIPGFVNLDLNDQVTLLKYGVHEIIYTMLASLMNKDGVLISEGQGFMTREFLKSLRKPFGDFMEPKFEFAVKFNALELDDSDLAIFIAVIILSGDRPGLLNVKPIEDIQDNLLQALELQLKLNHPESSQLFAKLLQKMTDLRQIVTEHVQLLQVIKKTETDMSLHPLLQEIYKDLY
Description: 4) Determination of EC50 Values of PPAR Agonists in the Cellular PPARgamma Assay
A transient transfection system is employed to determine the cellular PPARgamma activity of PPAR agonists. It is based on the use of a luciferase reporter plasmid (pGL3basic-5xGAL4-TK) and of a PPARgamma expression plasmid (pcDNA3-GAL4-humanPPARgammaLBD). Both plasmids are transiently transfected into human embryonic kidney cells (HEK cells). There is then expression in these cells of the fusion protein GAL4-humanPPARgammaLBD which binds to the GAL4 binding sites of the reporter plasmid. In the presence of a PPARgamma-active ligand, the activated fusion protein GAL4-humanPPARgammaLBD induces expression of the luciferase reporter gene, which can be detected in the form of a chemiluminescence signal after addition of a luciferase substrate. As a difference from the stably transfected PPARalpha reporter cell line, in the cellular PPARgamma assay the two components (luciferase reporter plasmid and PPARgamma expression plasmid) are transiently transfected into HEK cells because stable and permanent expression of the PPARgamma fusion protein is cytotoxic.
The luciferase reporter plasmid pGL3basic-5xGAL4-TK is based on the vector pGL3basic from Promega. The reporter plasmid is prepared by cloning five binding sites of the yeast transcription factor GAL4 (each binding site with the sequence 5′-CTCGGAGGACAGTACTCCG-3′), together with a 160 bp-long thymidine kinase promoter section (Genbank Accession #AF027128) 5′-upstream into pGL3basic. 3′-downstream of the thymidine kinase promoter is the complete luciferase gene from Photinus pyralis (Genbank Accession # Ml 5077), which is already a constituent of the plasmid pGL3basic used. The cloning and sequencing of the reporter plasmid pGL3basic-5xGAL4-TK took place in analogy to the description in Sambrook J. et. al. (Molecular cloning, Cold Spring Harbor Laboratory Press, 1989).
The PPARgamma expression plasmid pcDNA3-GAL4-humanPPARgammaLBD was prepared by first cloning the cDNA coding for amino acids 1-147 of the yeast transcription factor GAL4 (Genbank Accession #P04386) into the plasmid pcDNA3 (from Invitrogen) 3′-downstream of the cytomegalovirus promoter. Subsequently, the cDNA of the ligand-binding domain (LBD) of the human PPARgamma receptor (amino acids […]; Accession #g1480099) 3′-downstream of the GAL4 DNA binding domain was cloned. Cloning and sequencing of the PPARgamma expression plasmid pcDNA3-GAL4-humanPPARgammaLBD again took place in analogy to the description in Sambrook J. et. al. (Molecular cloning, Cold Spring Harbor Laboratory Press, 1989). Besides the luciferase reporter plasmid pGL3basic-5xGAL4-TK and the PPARgamma expression plasmid pcDNA3-GAL4-humanPPARgammaLBD, also used for the cellular PPARgamma assay are the reference plasmid pRL-CMV (from Promega) and the plasmid pBluescript SK(+) from Stratagene. All four plasmids were prepared using a plasmid preparation kit from Qiagen, which ensured a plasmid quality with a minimal endotoxin content, before transfection into HEK cells.
The activity of PPARgamma agonists is determined in a 4-day assay which is described below. Before the transfection, HEK cells were cultivated in DMEM medium (#41965-039, Invitrogen) which was mixed with the following additions: 10% FCS (#16000-044, Invitrogen),1% penicillin-streptomycin solution (#15140-122, Invitrogen) and 2 mM L-glutamine (#25030-024, Invitrogen).
Solution A, a transfection mixture which contains all four plasmids previously described in addition to DMEM medium, was prepared. […]

human PPARalpha = target: T2, human PPARalpha (Homo sapiens, UniProt Q07869); experiment: Cellular PPARalpha assay (stably transfected HEK luciferase reporter cell line); format: cell-based; details: GR-GAL4-humanPPARalpha-LBD, 24 h
T2 construct: human PPARalpha receptor (amino acids S167-Y468); expressed in transfected cells; host or cells: HEK cells (stably transfected, pcDNA3, CMV promoter)
T2 sequence (Q07869 167-468): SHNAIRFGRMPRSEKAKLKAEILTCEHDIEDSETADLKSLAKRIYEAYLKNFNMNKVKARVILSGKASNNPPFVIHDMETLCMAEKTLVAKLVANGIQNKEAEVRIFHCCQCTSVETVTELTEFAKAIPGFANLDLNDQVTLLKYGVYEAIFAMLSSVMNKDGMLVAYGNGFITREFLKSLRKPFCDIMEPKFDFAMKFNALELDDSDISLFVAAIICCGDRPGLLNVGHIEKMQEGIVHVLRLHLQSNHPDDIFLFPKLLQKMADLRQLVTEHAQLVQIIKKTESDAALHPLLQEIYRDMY
Description: 1) Determination of EC50 Values of PPAR Agonists in the Cellular PPARalpha Assay
The activity of the novel compounds of the present invention was tested as follows The potency of substances which bind to human PPARalpha and activate it in an agonistic manner is analyzed using a stably transfected HEK cell line (HEK=human embryo kidney) which is referred to here as PPARalpha reporter cell line. It contained two genetic elements, a luciferase reporter element (pdeltaM-GAL4-Luc-Zeo) and a PPARalpha fusion protein (GR-GAL4-humanPPARalpha-LBD) which mediates expression of the luciferase reporter element depending on a PPARalpha ligand. The stably and constitutively expressed fusion protein GR-GAL4-humanPPARalpha-LBD binds in the cell nucleus of the PPARalpha reporter cell line via the GAL4 protein portion to the GAL4 DNA binding motifs 5′-upstream of the luciferase reporter element which was stably integrated in the genome of the cell line. There is only little expression of the luciferase reporter gene without addition of a PPARalpha ligand if fatty acid-depleted fetal calf serum (cs-FCS) is used in the assay. PPARalpha ligands bind and activate the PPARalpha fusion protein and thereby bring about expression of the luciferase reporter gene. The luciferase which is formed can be detected by means of chemiluminescence via an appropriate substrate.
The PPARalpha reporter cell line was prepared in two steps. Firstly, the luciferase reporter element was constructed and stably transfected into HEK cells. For this purpose, five binding sites of the yeast transcription factor GAL4 (in each case 5′-CGGAGTACTGTCCTCCGAG-3′) were cloned in 5′-upstream of a 68 bp-long minimal MMTV promoter (Genbank Accession #V01175). The minimal MMTV promoter section contains a CCAAT box and a TATA element in order to enable efficient transcription by RNA polymerase II. The cloning and sequencing of the GAL4-MMTV construct took place in analogy to the description of Sambrook J. et. al. (Molecular Cloning, Cold Spring Harbor Laboratory Press, 1989). Which is hereby incorporated by reference herein.
The complete Photinus pyralis luciferase gene (Genbank Accession #M15077) was cloned in 3′-downstream of the GAL4-MMTV element. After sequencing, the luciferase reporter element consisting of five GAL4 binding sites, MMTV promoter and luciferase gene was subcloned into a plasmid which confers zeozin resistance in order to obtain the plasmid pdeltaM-GAL4-Luc-Zeo. This vector was transfected into HEK cells in accordance with the statements in Ausubel, F.M. et al. (Current Protocols in Molecular Biology, Vol. 1-3, John Wiley & Sons, Inc., 1995).
In a second step, the PPARalpha fusion protein (GR-GAL4-humanPPARalpha-LBD) was introduced into the stable cell clone described. For this purpose, initially the cDNA coding for the N-terminal 76 amino acids of the glucocorticoid receptor (Genbank Accession # P04150) was linked to the cDNA section coding for amino acids 1-147 of the yeast transcription factor GAL4 (Genbank Accession #P04386). The cDNA of the ligand-binding domain of the human PPARalpha receptor (amino acids S167-Y468; Genbank Accession #S74349) was cloned in at the 3′ end of this GR-GAL4 construct. The fusion construct prepared in this way (GR-GAL4-humanPPARalpha-LBD) was subcloned into the plasmid pcDNA3 (from Invitrogen) in order to enable constitutive expression therein by the cytomegalovirus promoter. This plasmid was linearized with a restriction endonuclease and stably transfected into the previously described cell clone containing the luciferase reporter element. The finished PPARalpha reporter cell line which contains a luciferase reporter element and constitutively expresses the PPARalpha fusion protein (GR-GAL4-humanPPARalpha-LBD) was isolated by selection with zeozin (0.5 mg/ml) and G418 (0.5 mg/ml).
The activity of PPARalpha agonists was determined in a 3-day assay which is described below: […]

Compound | EC50 (human PPARgamma) [nM] | EC50 (human PPARalpha) [nM]
Cc1oc(-c2ccc(C(C)C)cc2)nc1COCC1CCCC(COC(C)(C)C(=O)O)C1 (centres unmarked) [**] | > 10000 | 1.3
Cc1oc(-c2ccccc2)nc1COCC1CCCC(COC(C)(C)C(=O)O)C1 (centres unmarked) [*] | 2590 | 75
CCc1oc(-c2ccc(C(F)(F)F)cc2)nc1COC[C@@H]1CCC[C@H](COC(C)(C)C(=O)O)C1 [Example 1, 2-{(1S,3R)-3-[5-Ethyl-2-(4-trifluoromethylphenyl)oxazol-4-ylmethoxymethyl]cyclohexylmethoxy}-2-methylpropionic acid] | 1560 | 3.6
CCc1oc(-c2ccccc2C(F)(F)F)nc1COC[C@@H]1CCC[C@H](COC(C)(C)C(=O)O)C1 [Example 3, 2-{(1S,3R)-3-[5-Ethyl-2-(2-trifluoromethylphenyl)-oxazol-4-ylmethoxymethyl]cyclohexylmethoxyl}-2-methylpropionic acid] | 2760 | 152
CC(C)c1oc(-c2ccc(C(F)(F)F)cc2)nc1COC[C@@H]1CCC[C@H](COC(C)(C)C(=O)O)C1 [Example 6, 2-{(1S,3R)-3-[5-Isopropyl-2-(4-trifluoromethylphenyl)oxazol-4-ylmethoxymethyl]cyclohexylmethoxy}-2-methylpropionic acid] | 1880 | 19.3
CC(C)c1oc(-c2cccc(C(F)(F)F)c2)nc1COC[C@@H]1CCC[C@H](COC(C)(C)C(=O)O)C1 [Example 7, 2-{(1S,3R)-3-[5-Isopropyl-2-(3-trifluoromethylphenyl)oxazol-4-ylmethoxymethyl]cyclohexylmethoxyl}-2-methylpropionic acid] | 800 | 46.2
Cc1ccc(-c2nc(COC[C@@H]3CCC[C@H](COC(C)(C)C(=O)O)C3)c(C(C)C)o2)cc1C [Example 8, 2-{(1S,3R)-3-[2-(3,4-Dimethylphenyl)-5-isopropyloxazol-4-ylmethoxymethyl]cyclohexylmethoxy}-2-methylpropionic acid] | 1500 | 37.5

The next compounds have a lower EC50 (human PPARgamma) than those just listed; values first:

EC50 (human PPARgamma) [nM] | EC50 (human PPARalpha) [nM] | Compound
672 | 381 | COc1cccc(-c2nc(COC[C@@H]3CCC[C@H](COC(C)(C)C(=O)O)C3)c(C(C)C)o2)c1 [Example 10, 2-{1(1S,3R)-3-[5-Isopropyl-2-(3-methoxyphenyl)oxazol-4-ylmethoxymethyl]cyclohexylmethoxy}-2-methylpropionic acid]
492 | 48.8 | CC(C)c1oc(-c2ccc(C(C)(C)C)cc2)nc1COC[C@@H]1CCC[C@H](COC(C)(C)C(=O)O)C1 [Example 9, 2-{(1S,3R)-3-[2-(4-tert-butylphenyl)-5-isopropyloxazol-4-ylmethoxymethyl]cyclohexylmethoxy}-2-methylpropionic acid]
324 | 1.9 | CCc1oc(-c2ccc(C)c(C)c2)nc1COC[C@@H]1CCC[C@H](COC(C)(C)C(=O)O)C1 [Example 4, 2-{(1S,3R)-3-[2-(3,4-Dimethylphenyl)-5-ethyloxazol-4-ylmethoxymethyl]cyclohexylmethoxy}-2-methylpropionic acid]
266 | 14.3 | CCc1oc(-c2ccc(C(C)(C)C)cc2)nc1COC[C@@H]1CCC[C@H](COC(C)(C)C(=O)O)C1 [Example 5, 2-{1(1S,3R)-3-[2-(4-tert-butylphenyl)-5-ethyloxazol-4-ylmethoxymethyl]cyclohexylmethoxy}-2-methylpropionic acid]
232 | 32 | CCc1oc(-c2cccc(C(F)(F)F)c2)nc1COC[C@@H]1CCC[C@H](COC(C)(C)C(=O)O)C1 [Example 2, 2-{(1S,3R)-3-[5-Ethyl-2-(3-trifluoromethylphenyl)-oxazol-4-ylmethoxymethyl]cyclohexylmethoxy}-2-methylpropionic acid]
150 | 71.7 | 2-{(1R,3S)-3-[5-Isopropyl-2-(3-methoxyphenyl)oxazol-4-ylmethoxymethyl]cyclohexylmethoxy}-2-methylpropionic acid [Example 15]
